B1: His-HSP20 (purified recombinant His-tagged HSP20) (other)
chain: MEIPVPVQPSWLRRASAPLPGLSAPGRLFDQRFGEGLLEAELAALCPTTLAPYYLRAPSVALPVAQVPTDPGHFSVLLDVKHFSPEEIAVKVVGEHVEVHARHEERPDEHGFVAREFHRRYRLPPGVDPAAVTSALSPEGVLSIQAAPASAQAPPPAAAK
notes: Expressed in E. coli BL21 from pET28c and purified on nickel; also called HSP20-His; HSP20-6His; not shown: His tag from the pET28c vector
B2: GST-PDE4D5 (enzyme)
chain: MAQQTSPDTLTVPEVDNPHCPNPWLNEDLVKSLRENLLQHEKSKTARKSVSPKLSPVISPRNSPRLLRRMLLSSNIPKQRRFTVAHTCFDVDNGTSAGRSPLDPMTSPGSGLILQANFVHSQRRESFLYRSDSDYDLSPKSMSRNSSIASDIHGDDLIVTPFAQVLASLRTVRNNFAALTNLQDRAPSKRSPMCNQPSINKATITEEAYQKLASETLEELDWCLDQLETLQTRHSVSEMASNKFKRMLNRELTHLSEMSRSGNQVSEFISNTFLDKQHEVEIPSPTQKEKEKKKRPMSQISGVKKLMHSSSLTNSSIPRFGVKTEQEDVLAKELEDVNKWGLHVFRIAELSGNRPLTVIMHTIFQERDLLKTFKIPVDTLITYLMTLEDHYHADVAYHNNIHAADVVQSTHVLLSTPALEAVFTDLEILAAIFASAIHDVDHPGVSNQFLINTNSELALMYNDSSVLENHHLAVGFKLLQEENCDIFQNLTKKQRQSLRKMVIDIVLATDMSKHMNLLADLKTMVETKKVTSSGVLLLDNYSDRIQVLQNMVHCADLSNPTKPLQLYRQWTDRIMEEFFRQGDRERERGMEISPMCDKHNASVEKSQVGFIDYIVHPLWETWADLVHPDAQDILDTLEDNREWYQSTIPQSPSPAPDDPEEGRQGQTEKFQFELTLEEDGESDTEKDSGSQVEEDTSCSDSKTLCTQDSESTEIPLDEQVEEEAVGEEEESQPEACVIDDRSPDT
notes: Expressed in E. coli and purified; Printed both GST-PDE4D5 and PDE4D5-GST; also called PDE4D5-GST; not shown: glutathione-S-transferase (GST) tag
B3: PDE4D5 (transfected into HEKB2 / HEK293 cells) (enzyme)
chain: B2 chain

Tests used:
PDE4 = PDE4 activity associated with HSP20 immunoprecipitates from cardiac myocytes; format: cell-based, rat; settings: isoprenaline 1 μM
Method: FIG. 3. HSP20 forms a complex with members of the PDE4 family of phosphodiesterases. A (upper panel), Immunopurification (Ips) of HSP20 from cellular lysates isolated from myocytes following treatment with Isoprenaline (1 μM) were blotted for the presence of PDE4D isoforms. B, (lower panel) The PDE4 activity associated with HSP20 Ips was determined. C, Members of the PDE4D sub-family of PDE4s were co-expressed with HSP20 in HEKB2 cells. HSP20 Ips were probed for PDE4D isoforms.
PDE activity was measured using a radioactive cAMP hydrolysis assay that has been described previously^56. [8-^3H]adenosine cyclic-3,5′-mono-phosphate was sourced from Amersham Biosciences (Little Chalfont, U.K.) and cyclic-3′,5′-mono-phosphate from Sigma.
Immunopurification (Ips) of HSP20 from cardiac myocytes were screened for associating PDE4 by Western blotting analysis and cAMP PDE assay (FIG. 3A).

[1] = system: neonatal cardiac myocytes; assay: Cardiac myocyte size by xCELLigence impedance (normalised cell index); format: cell-based, rat; settings: 24 hour isoprenaline 10 μM, 30 min pre-treatment with 10 μM peptide
Method: (§1) FIG. 7. Peptide disruption of the PDE4D-HSP20 complex attenuates the hypertrophic response triggered by constant […]-agonist treatment. A, Upper panel. The area covered by isolated cardiac myocytes was used as a measure of cell size. Lower panel, Graphical depiction of the mean areas (N=100) of cells following 24 hours of indicated treatments. B, impedance measurements were used to calculate continuous normalised cell index using exCELLigence technology Normalised mean (n=4) cell index after 24 hours of indicated treatments.
The E-Plate 96 (Roche) was used for these experiments^45. This comprises a 96-well plate with integral sensor electrode arrays to measure cell impedance. […] E-plate 96 is a 96-well microtiter plate with incorporated gold cell sensor arrays in the bottom, which allows impedance inside each well to be monitored and assayed in real time. […] The impedance measured between electrodes in an individual well depends on electrode geometry, ion concentration in the well and whether or not cells are attached to the electrodes^45. In the absence of cells, electrode impedance is mainly determined by the ion environment both at the electrode/solution interface and in the bulk solution. […] Small changes in impedance can also be recorded when cells temporally change shape or size in response to agonists^46,57. […]

[2] = system: neonatal cardiac myocytes; assay: Cardiac myocyte cell size, manual cross-sectional area; format: cell-based, rat; settings: 24 hour isoprenaline 10 μM, 30 min pre-treatment with 10 μM peptide
Method: as §1
Cardiomyocytes were plated out on gelatin (Sigma) pre-coated 6-well plates and placed in an incubator at 37° C. and an atmosphere of 5% CO2. After 24 h the cardiomyocytes were cultured in a serum-free condition for 48 h before experiments. The cardiomyocytes were then challenged for 24 h with either 10 μM isoprenaline alone or isoprenaline following a 30 min pre-treatment with 10 μM rolipram, 10 μM bs906 or 10 μM control peptide. Thereafter, cell size was determined on phase-contrast microscope. […] from randomly selected microscope images (400×) were captured digitally and analysed. Cross-sectional area was determined by the following formula: cross-sectional area=(radius)^2×π. Values are expressed as means±SE of five separate culture preparations. A f-test was performed to compare the two groups, and the P values are indicated.

[3] = system: Phospho-Ser16 HSP20 in HEKB2 cells; assay: Ser16 phosphorylation of HSP20 in HEKB2 cells overexpressing HSP20 (Western blot); format: cell-based; settings: HEKB2 cells transfected with wt HSP20, isoprenaline 1 μM, indicated times
Method: FIG. 1. The phosphorylation of HSP20 at Ser16 is modulated by PDE4 activity in HEKB2 cells. A, HEKB2 cells overexpressing HSP20 or HSP20 ser16-Ala mutant were treated with isoprenaline for indicated times. Cellular lysates were blotted for HSP20 and Phospho-Ser16 HSP20. B, HEKB2 cells overexpressing HSP20 were treated with isoprenaline for indicated times, Cellular lysates were blotted for HSP20 and Phospho-Ser16 HSP20. C, HEKB2 cells overexpressing HSP20 were treated with isoprenaline for indicated times following pre-treatment with the PDE4-specific inhibitor, rolipram. Cellular lysates were blotted for HSP20 and Phospho-Ser16 HSP20. D, Quantifications of data from FIGS. 1B and 1C (n=4). * Denotes significance at a level p<0.05 E, Lysate from untransfected HEKB2 cells was blotted for HSP20 and Phospho-Ser16 HSP20.
(§2) HEK293B2 cells are a stable cell line overexpressing the GFP-tagged β2AR were cultured as previously described^48. HEK293B2 cells were transiently transfected with wild type HSP20 or a phosphorylation defective HSP20 (S16A) or a phosphorylation mimic HSP20 (S16D). Neonatal cardiac myocytes were prepared and cultured as previously described^30. Cell lysis, immunopurification and western blotting was done as described before by us in some detail^48. Briefly, HEK 293 cells were transiently transfected with wild-type HSP20 by using Polyfect Transfection Reagent (Qiagen). Transfected HEK 293 cells were treated with 10 μM bs906 or 10 μM control peptide for 0, 15, 30, 60 and 120 min. Control and treated transfected HEK 293 cells were then washed thrice with ice cold PBS (phosphate buffered saline) before cellular lysates were prepared. Cellular lysates were prepared in lysis buffer containing 25 mM Hepes, pH 7.5, 2.5 mM EDTA, 50 mM NaCl, 50 mM NaF, […], 10% (v/v) glycerol, 1% (v/v) Triton X-100 and Complete™ EDTA-free protease inhibitor cocktail tablets (Roche). Protein concentration of lysates were determined using the Bradford assay and all samples were equalised for protein concentration. Proteins were separated by SOS/PAGE (4-12% Bis-Tris gels) and transferred onto nitrocellulose membranes for Western blotting. Antibodies were used to detect phospho-proteins and native proteins in lysates from control and treated cells
In contrast to this, when we transfected these cells with a phospho-null mutant form, Ser16Ala-Hsp20, then no such change was observed (FIG. 1A). In order to evaluate whether PDE4 activity played a role in regulating this phosphorylation process in Hsp20-transfected HEKB2 cells, cells that had either been pre-treated or not with the PDE4 selective inhibitor rolipram were subsequently challenged with isoprenaline (1 μM) (FIGS. 1B and C). […] Endogenous levels of phospho-HSP20 or HSP20 were not detectable in HEKB2 cells (FIG. 1E).

[4] = system: Phospho-Ser16 HSP20 in neonatal cardiac myocytes; assay: Ser16 phosphorylation of endogenous HSP20 in neonatal cardiac myocytes (Western blot); format: cell-based, rat; settings: neonatal cardiomyocytes, isoprenaline challenge
Method: FIG. 2. The phosphorylation of HSP20 at Ser16 is modulated by PDE4 activity in cardiac myocytes. A, Neonatal cardiac myocytes were treated with isoprenaline for indicated times with or without pre-treatment with the PDE4-specific inhibitor, rolipram. Cellular lysates were blotted for HSP20 and Phospho-Ser16 HSP20. B, Quantifications of data from FIG. 2A (n=3). * Denotes significance at a level p<0.05 over iso treatment.
as §2
To determine whether inhibition of PDE4 activity had similar effects on endogenous phospho-HSP20 levels in heart cells, similar experiments were undertaken using neonatal cardiomyocytes (FIG. 2).

GST alone = biological target: T1, GST alone (UniProt P08515 1-218 = GST); assay: GST pull-down with purified recombinant proteins, immunoblot
T1 construct: Control of the pull-down
T1 sequence (P08515 whole entry): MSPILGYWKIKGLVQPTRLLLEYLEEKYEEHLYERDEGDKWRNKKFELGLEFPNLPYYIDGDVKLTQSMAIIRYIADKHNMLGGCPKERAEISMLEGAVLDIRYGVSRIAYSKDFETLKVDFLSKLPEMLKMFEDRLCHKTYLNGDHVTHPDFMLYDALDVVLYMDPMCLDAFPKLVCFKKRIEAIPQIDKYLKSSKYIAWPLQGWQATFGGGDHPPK
Method: (§3) GST-PDE4 fusions proteins (500 μl of 2 μM) were mixed with 100 μl slurry of 50% (v/v) PBS-washed Glutathione beads for 2 h at 4° C. The beads were pelleted by centrifugation (14,000 g, 1 min) and washed twice with PBS containing 1% Triton X-100 before the addition of equal molar amounts of […] fusion protein in a 1 mL solution of PBS and Triton X-100 containing 5 mM dithiothreitol. After a 2 h incubation at 4° C. the beads were collected and washed three times with PBS and eluted in 100 μl of 2× Laemmli buffer. Eluates were resolved by SDS-PAGE, and the HSP20-His fusion proteins were detected by immunoblotting.
(§4) To evaluate further Hsp20 association with PDE4, we set out to determine whether they interacted directly. In order to do this we expressed Hsp20 and various PDE4 species in E. coli and purified them for use in pull-down assays. […] Additionally, we performed the converse experiment and first did pull-downs of HSP20, using its His tag, and then tested for co-purification of PDE4 species.

[5] = biological target: B1; assay: GST pull-down with purified recombinant proteins, immunoblot (data not shown)
Method: as §3, §4

[6] = biological target: T2, HSP20, wild type, transfected into HEKB2 / HEK293 cells (human, UniProt O14558 1-160); assay: co-immunopurification with HSP20 from co-transfected HEKB2 cells, Western blot
T2 construct: Expressed from pcDNA6.2-Hsp20 (Gateway cloning into pcDNA6.2/V5-DEST); Immunopurified from cell lysates; also called HSP20 wt
T2 sequence: B1 chain
Method: HEK293B2 cells are a stable cell line overexpressing the GFP-tagged β₂AR were cultured as previously described⁴⁸. HEK293B2 cells were transiently transfected with wild type HSP20 or a phosphorylation defective HSP20 (S16A) or a phosphorylation mimic HSP20 (S16D). […] Cell lysis, immunopurification and western blotting was done as described before by us in some detail⁴⁸. Briefly, HEK 293 cells were transiently transfected with wild-type HSP20 by using Polyfect Transfection Reagent (Qiagen). […] Control and treated transfected HEK 293 cells were then washed thrice with ice cold PBS (phosphate buffered saline) before cellular lysates were prepared. Cellular lysates were prepared in lysis buffer containing 25 mM Hepes, pH 7.5, 2.5 mM EDTA, 50 mM NaCl, 50 mM NaF, μM sodium pyrophosphate, 10% (v/v) glycerol, 1% (v/v) Triton X-100 and Complete™ EDTA-free protease inhibitor cocktail tablets (Roche). Protein concentration of lysates were determined using the Bradford assay and all samples were equalised for protein concentration. […] Antibodies were used to detect phospho-proteins and native proteins in lysates from control and treated cells
As before, we immunopurified HSP20 and blotted for the presence of transfected isoforms (FIG. 38).

Molecule: CC(C)NCC(O)c1ccc(O)c(O)c1 (centres unmarked) [isoprenaline]
- increase in PDE4 activity associated with HSP20 immunoprecipitates vs untreated lysates (PDE4): 2.5 fold
- cell size (normalised cell index, impedance) of cardiac myocytes [1]: marked increase in cell size
- cell size (cross-sectional area) of cardiac myocytes [2]: marked increase in cell size
- phosphorylation of Hsp20 at Ser16 [3]: time dependent phosphorylation of Hsp20 at Ser16
- endogenous phospho-HSP20 levels [4]: induced an increase in endogenous phospho-HSP20 levels

Molecule: B1
- binding result (GST alone): no binding

Molecule: B2
- binding result [5]: binds

Molecule: B3
- binding result [6]: binds
